The test system of experiment [1] is mice subjected to controlled cortical impact injury. As to the kind of experiment: Residual cerebral tissue ratio, cresyl violet staining. The experiment is classed as in vivo. The settings on record: icv LY294002 30 min before CCI, then SALD 20 mg/kg ip (S20LY group); day 28; P<0.05 vs S20S. How it is done:
All animal procedures were approved by the Animal Research Committee at Cheng Hsin General Hospital (Animal permit number CHIACUC 101–08), and all procedures complied with the Guide for the Care and Use of Laboratory Animals published by the US National Institutes of Health (NIH Publication No. 85–23, revised 1996). Animals were housed under a 12-h light/dark cycle and at constant temperature (21–25°C) and humidity (45–50%). They were allowed free access to pellet chow and water. TBI in mice was induced by a CCI injury model as previously described. Briefly, 8-week-old male C57BL/6 mice (weighing 22–25 g) were anesthetized through the use of intraperitoneal injection of sodium pentobarbital (65 mg/kg; Rhone Merieux, Harlow, UK) and placed in a stereotaxic frame. A 5 mm craniotomy was performed over the right parietal cortex, centered on the coronal suture and 0.1 mm lateral to the sagittal suture, and injury to dura was avoided. Injury was induced using a pneumatic piston with a rounded metal tip (2.5 mm diameter) that was angled 22.5° to the vertical so that the tip was perpendicular with the brain surface at the center of the craniotomy. The impact, with a velocity of […] and a deformation depth of 2 mm below the dura, was applied. The bone flap was immediately replaced and sealed, and the scalp was sutured. Body temperature was monitored throughout the surgery by a rectal probe; temperature was maintained at 37.0±0.5°C using a heated pad. Mice were placed in a heated cage to maintain body temperature, while recovering from anesthesia. Sham-operated mice underwent the same procedure as injured mice, but without CCI.
(§1) Mice were anesthetized and positioned in a stereotaxic frame. LY294002 (200 nM in 0.5 µL of saline) or equal amount of physiological saline was intracerebroventricularly (icv) injected at 30 min before CCI as previously described. A 1 mm cranial burr hole was drilled into the skull. A 30-gauge needle on a Hamilton syringe was implanted into the lateral ventricle using stereotactic coordinates: 1.5 mm posterior to bregma and 1.0 mm right lateral to the midline, 2 mm in depth. LY294002 or saline was infused into the brain at a rate of 0.05 µL/min over 10 min with an infusion pump (KDS 310, KD Scientific Inc., Holliston, MA, USA), and the needle was left in place for an additional 20 min to prevent reflux. After the needle was removed, CCI procedure was conducted immediately. Sham-operated mice were infused icv with saline, but were not subjected to CCI.
Three sets of experiments were performed. […] To determine the optimal dose of salidroside, a pilot study was performed using 2 different doses (20 and 50 mg/kg) administered 10 min after injury, and neurological deficits and tissue damage were evaluated as the main outcomes. […]

The next experiment relates to p-Akt Ser473. Kind of experiment: Western blot, injured cortex. Format: in vivo, mice. On the procedure:
as §1
(§2) Three sets of experiments were performed. The first set was to investigate the protective effects of salidroside. All animals were randomized into 1 of 3 groups (sham injury, CCI + vehicle, CCI + SALD 20). Surgery/injury, behavioral testing, and tissue analyses were performed by different individuals. Behavioral testing and tissue analyses were performed by individuals blinded to the treatment group. Salidroside (Cayman Chemical, Ann Arbor, MI, USA) dissolved in normal saline (0.25 mL) or a corresponding volume of vehicle (saline) was administered intraperitoneally 10 min following injury. Testing after injury was completed as follows: 1) behavioral testing at days 1, 4, 7, 14, 21, and 28 (n = 8–10 mice/group); 2) cresyl violet staining at day 28 (n = 9 mice/group); 3) histology, determination of brain water content, and western blot analysis at day 1 or 3 (n = 5–6 mice/group). To determine the optimal dose of salidroside, a pilot study was performed using 2 different doses (20 and 50 mg/kg) administered 10 min after injury, and neurological deficits and tissue damage were evaluated as the main outcomes. […] The second set of experiment was to assess the effect of the inhibition of PI3K/Akt with the specific PI3K inhibitor, LY294002 (Cell Signaling Technology, Danvers, MA, USA), on salidroside effects. Animals were randomized into 4 groups. Mice received either: 1) icv pretreatment of LY294002 followed by SALD 20 after CCI (S20Y group); or 2) icv pretreatment of saline (vehicle control) followed by SALD 20 after CCI (S20V group). 3) Mice were infused icv with saline and were subjected to sham injury. 4) Mice were infused icv with LY294002 and were subjected to sham injury. Testing after injury was completed as follows: 1) cresyl violet staining at day 28 (n = 6 mice/group); 2) western blot analysis at day 1 (n = 6 mice/group). The third set of experiment was performed to examine the neuroprotective time window afforded by salidroside. Mice received intraperitoneal SALD 20 or vehicle (saline) at 3 or 6 h following CCI and were sacrificed 1 day later for FJB staining and western blot analysis (n = 6 mice/group).
(§3) Brains of injured or sham animals were collected 1 day and 3 days post CCI or sham surgery, and a 4 mm coronal section from the injured area over the parietal cortex and ipsilateral hippocampus were collected. The protein samples were obtained from tissue homogenates in 300 µL of ice-cold reagent (T-PER reagent; Pierce Biotechnology, Rockford, IL, USA) with a complete mini protease inhibitor cocktail (Roche Molecular Biochemicals) centrifuged at 14000g for 30 min. Protein concentration was determined by Bradford reagent spectrophotometrically at A595. Equal amounts of protein samples were denatured in gel-loading buffer at 100°C for 5 min, and then loaded onto sodium dodecyl sulfate-polyacrylamide gels to be separated. Separated proteins were transferred to Immobilon-P membranes (Millipore, Billerica, MA, USA), blocked with the use of 5% milk in PBST and probed with primary antibodies. […]

Another experiment relates to p-Akt Thr308. As to the kind of experiment: Western blot, injured cortex. Conditions: icv LY294002 30 min before CCI + SALD 20 mg/kg ip (S20LY); day 1; P<0.05. The experiment is classed as in vivo, mice. On the procedure:
as §1, §2, §3
In general terms: Immunoblotting shows a protein as a band on a membrane.

Another experiment deals with p-FOXO1. As to the kind of experiment: Western blot, injured cortex. Format: in vivo, mice. How it is done:
as §1, §2, §3

Another experiment relates to p-Bad. Kind of experiment: Western blot, injured cortex. The experiment is classed as in vivo, mice. How it is done:
as §1, §2, §3

The mark [2] stands for this setting: icv LY294002 30 min before CCI + SALD 20 mg/kg ip, day 1, P>0.05.

For `O=c1cc(N2CCOCC2)oc2c(-c3ccccc3)cccc12` [LY294002, reference compound], in experiment [1], the “residual cerebral tissue ratio” value came to 71.0±6.3%. For the same compound, the “p-Akt Ser473 level, S20LY versus S20V group” value in the experiment on p-Akt Ser473 (setting [2]) was “similar”. Moreover, the “Akt phosphorylation (Ser473 and Thr308) in sham-operated mice” value in the experiment with p-Akt Ser473 (icv LY294002, sham injury) is reported as “did not affect”. In the experiment with p-Akt Thr308, the “p-Akt Thr308 level, % of the S20V level” value was 58.1%. Further, the “p-FOXO1 level, % of the S20V level” value in the experiment on p-FOXO1 (icv LY294002 30 min before CCI + SALD 20 mg/kg ip (S20LY), day 1, P<0.05) came to 41.6%. Besides, the “FOXO1 phosphorylation in sham-operated mice” value in the experiment with p-FOXO1 (icv LY294002, sham injury) is “did not affect”. Moreover, the “p-Bad level, S20LY versus S20V group” value with p-Bad (setting [2]) is “similar”. For the same compound, the “Bad phosphorylation in sham-operated mice” value in the experiment on p-Bad (icv LY294002, sham injury) is “did not affect”.

The record behind these values is paper PMC3454376, “Salidroside Improves Behavioral and Histological Outcomes and Reduces Apoptosis via PI3K/Akt Signaling after Experimental Traumatic Brain Injury” (PLoS ONE, 2012).
